Experiments:
[1] = system: diastolic blood pressure; assay: Diastolic blood pressure in anaesthetised dogs, i.v. administration; type: in vivo, dog
Procedure: (§1) Effects on Urethral Contractions (Induced by Noradrenaline Injection and Hypogastric-nerve Stimulation) and on Blood Pressure in Dogs After Intravenous Administration
(§2) The experiments were performed according to the method of Imagawa et al. (J. Pharmacol. Methods, 22:103-111, 1989) with substantial modifications, as follows: adult male beagle dogs, weighing 8-10 kg, were anaesthetised with pentobarbital sodium (30 mg/kg i.v. and 2 mg/kg/h i.v.), intubated and spontaneously ventilated with room air. In order to monitor systemic blood pressure (BP), a polyethylene (PE) catheter was introduced into the aortic arch through the left femoral artery. A collateral of the left femoral vein was cannulated for infusion of anaesthetic, and the right femoral vein was cannulated for administration of the compounds. […] Prostatic urethral pressure was monitored with a Mikro-tip catheter (5F) introduced into the bladder via the external urethral meatus, and withdrawn until the pressure transducer was positioned in the prostatic region of the urethra. […]
(§3) After a stabilizing period following the surgical procedure (30 minutes), in which arterial and prostatic urethral pressure were continuously monitored as basal values, i.a. administration of NA and stimulation of the hypogastric nerve were alternately made at intervals of 10 minutes. […]

[2] = target: T1, recombinant α1b-adrenoceptor (Homo sapiens, UniProt P35368); assay: biochemical
T1 sequence (P35368 1-520): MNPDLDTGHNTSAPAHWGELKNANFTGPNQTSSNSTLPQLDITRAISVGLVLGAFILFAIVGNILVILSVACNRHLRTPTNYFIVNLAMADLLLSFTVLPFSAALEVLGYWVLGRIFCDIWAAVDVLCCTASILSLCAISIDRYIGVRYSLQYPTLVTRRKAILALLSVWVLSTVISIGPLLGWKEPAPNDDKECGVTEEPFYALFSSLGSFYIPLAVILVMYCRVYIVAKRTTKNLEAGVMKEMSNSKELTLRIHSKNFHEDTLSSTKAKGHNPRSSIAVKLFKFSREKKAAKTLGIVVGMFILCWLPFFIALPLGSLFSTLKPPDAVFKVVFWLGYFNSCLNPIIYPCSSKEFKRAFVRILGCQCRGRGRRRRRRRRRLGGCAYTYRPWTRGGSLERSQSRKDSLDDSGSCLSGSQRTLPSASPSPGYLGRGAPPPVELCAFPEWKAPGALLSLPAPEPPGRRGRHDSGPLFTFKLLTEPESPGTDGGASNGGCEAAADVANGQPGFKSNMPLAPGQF
Procedure: (§4) Determination of Affinity for Cloned α1 Adrenergic Receptors and 5-HT1A Serotoninergic Receptors by Radioligand Binding Assay
(§5) Determination of affinity for cloned subtypes of the α1-adrenoceptor was performed in membranes from cells transfected by electroporation with DNA expressing the genes encoding each α1-adrenoceptor subtype.
(§6) Non-specific binding was determined in the presence of 10 μM phentolamine. Incubation was stopped by addition of ice-cold Tris buffer and rapid filtration through 0.2%-polyethyleneimine pretreated Schleicher & Schuell GF52 filters.

[3] = target: T2, human 5-HT1A-serotoninergic receptor (Homo sapiens, UniProt P08908); assay: Radioligand binding ([3H]8-OH-DPAT) to cloned 5-HT1A receptor in HeLa cell membranes; conditions: mean Ki, read-out: Affinity for 5-HT1A receptor, Ki
T2 construct: expressed in transfected cells; host or cells: HeLa
T2 sequence (P08908 1-422): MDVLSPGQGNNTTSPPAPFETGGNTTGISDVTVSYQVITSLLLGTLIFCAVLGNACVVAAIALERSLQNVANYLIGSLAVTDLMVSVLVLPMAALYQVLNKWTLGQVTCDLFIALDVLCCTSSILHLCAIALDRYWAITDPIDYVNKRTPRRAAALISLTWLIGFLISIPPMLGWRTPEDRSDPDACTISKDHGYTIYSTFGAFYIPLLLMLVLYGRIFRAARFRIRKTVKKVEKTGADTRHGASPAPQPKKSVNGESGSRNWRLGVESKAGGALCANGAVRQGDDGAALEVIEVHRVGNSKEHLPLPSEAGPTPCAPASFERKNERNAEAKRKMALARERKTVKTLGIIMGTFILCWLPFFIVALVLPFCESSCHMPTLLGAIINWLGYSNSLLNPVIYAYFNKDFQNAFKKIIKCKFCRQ
From the text: Data were expressed as mean Ki.

[4] = target: T3, recombinant α1a-adrenoceptor (UniProt P35348); conditions: read-out: Affinity for recombinant α1a-adrenoceptor subtype, Ki; [3H]prazosin, membranes of transfected cells; mean Ki
T3 sequence (P35348 1-466): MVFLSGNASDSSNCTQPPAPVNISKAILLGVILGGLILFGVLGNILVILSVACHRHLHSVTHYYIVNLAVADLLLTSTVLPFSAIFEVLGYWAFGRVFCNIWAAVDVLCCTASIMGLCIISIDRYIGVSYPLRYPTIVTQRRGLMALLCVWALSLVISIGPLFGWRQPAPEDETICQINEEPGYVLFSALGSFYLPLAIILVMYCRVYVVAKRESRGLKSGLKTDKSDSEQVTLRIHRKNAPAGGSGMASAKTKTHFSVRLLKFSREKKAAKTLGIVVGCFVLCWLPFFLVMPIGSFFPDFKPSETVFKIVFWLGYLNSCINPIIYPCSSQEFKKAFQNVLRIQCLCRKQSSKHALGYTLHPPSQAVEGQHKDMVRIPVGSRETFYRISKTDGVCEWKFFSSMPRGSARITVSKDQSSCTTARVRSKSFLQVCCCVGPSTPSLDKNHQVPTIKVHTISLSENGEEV
Procedure: as §4, §5, §6

[5] = system: prostatic urethral pressure (hypogastric-nerve stimulation); assay: Urethral contractions induced by hypogastric-nerve stimulation in anaesthetised dogs, i.v. administration; type: in vivo, dog
Procedure: as §1, §2, §3

[6] = system: prostatic urethral pressure (noradrenaline-induced); assay: Urethral contractions induced by intraarterial noradrenaline in anaesthetised dogs, i.v. administration; type: in vivo, dog
Procedure: as §1, §2, §3

[7] = target: T4, recombinant α1d-adrenoceptor (UniProt P25100); conditions: [3H]prazosin, membranes of transfected cells; mean Ki
T4 sequence (P25100 1-572): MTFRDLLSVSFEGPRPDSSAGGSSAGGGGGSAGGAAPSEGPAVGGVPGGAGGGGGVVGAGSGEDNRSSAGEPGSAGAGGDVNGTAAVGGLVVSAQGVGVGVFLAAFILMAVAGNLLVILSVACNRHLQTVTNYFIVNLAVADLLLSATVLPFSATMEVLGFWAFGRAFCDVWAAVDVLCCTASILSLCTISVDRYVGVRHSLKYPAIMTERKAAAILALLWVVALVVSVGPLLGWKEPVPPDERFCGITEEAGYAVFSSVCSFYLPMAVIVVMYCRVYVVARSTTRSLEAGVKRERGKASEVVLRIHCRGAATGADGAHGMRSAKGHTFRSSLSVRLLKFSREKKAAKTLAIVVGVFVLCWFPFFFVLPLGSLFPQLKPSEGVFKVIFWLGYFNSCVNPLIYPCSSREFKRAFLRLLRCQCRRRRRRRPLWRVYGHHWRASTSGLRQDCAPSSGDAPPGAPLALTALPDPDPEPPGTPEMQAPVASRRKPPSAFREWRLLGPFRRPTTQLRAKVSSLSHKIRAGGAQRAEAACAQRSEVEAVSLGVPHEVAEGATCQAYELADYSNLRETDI
Procedure: as §4, §5, §6

| SMILES | Ki [2] | Ki [3] | Ki [4] | Affinity for recombinant α1d-adrenoceptor subtype, Ki [7] | DBP ED25: dose inducing a 25% decrease in diastolic blood pressure [1] | UP ID50 HYP: dose inhibiting by 50% the urethral contractions induced by hypogastric-nerve stimulation [5] | UP ID50 NA: dose inhibiting by 50% the urethral contractions induced by noradrenaline [6] |
| --- | --- | --- | --- | --- | --- | --- | --- |
| COc1ccc(Cl)cc1N1CCN(CCCNC(=O)c2c(-c3ccccc3)noc2C)CC1 [Example 1, N-{3-[4-(5-Chloro-2-methoxyphenyl)-1-piperazinyl]propyl}-5-methyl-3-phenylisoxazole-4-carboxamide] | 23.6 nM | 436 nM | 0.77 nM |  | 0.3545 mg/kg |  |  |
| Cc1onc(-c2ccccc2)c1C(=O)NCCCN1CCN(c2ccccc2OCC(F)(F)F)CC1 [Example 3, 5-Methyl-3-phenyl-N-{3-[4-[2-(2,2,2-trifluoroethoxy)phenyl]-1-piperazinyl]propyl}isoxazole-4-carboxamide] | 36.2 nM | 11.7 nM |  |  |  |  |  |
| COc1ccc(OCC(F)(F)F)cc1N1CCN(CCCNC(=O)c2c(-c3ccccc3)noc2C)CC1 [Example 4, N-{3-[4-[2-Methoxy-5-(2,2,2-trifluoroethoxy)phenyl]-1-piperazinyl]propyl}-5-methyl-3-phenylisoxazole-4-carboxamide] | 570 nM |  |  |  |  |  |  |
| Cc1onc(-c2ccccc2)c1C(=O)NCCCN1CCN(c2ccc(F)cc2OCC(F)(F)F)CC1 [Example 6, N-{3-[4-[4-Fluoro-2-(2,2,2-trifluoroethoxy)phenyl]-1-piperazinyl]propyl}-5-methyl-3-phenylisoxazole-4-carboxamide] | 69.5 nM | 317 nM | 0.35 nM |  | 0.1967 mg/kg | 0.0045 mg/kg | 0.0024 mg/kg |
| O=C(NCCCN1CCN(c2ccc(F)cc2OCC(F)(F)F)CC1)c1conc1-c1ccc(F)cc1 [Example 8, 3-(4-Fluorophenyl)-N-[3-[4-[4-fluoro-2-(2,2,2-trifluoroethoxy)phenyl]-1-piperazinyl]propyl]-isoxazole-4-carboxamide] | 28.1 nM | 202 nM |  | 25/81 |  |  |  |
| Cc1onc(-c2c(F)cccc2Cl)c1C(=O)NCCCN1CCN(c2ccc(F)cc2OCC(F)(F)F)CC1 [Example 9, 3-(2-Chloro-6-fluorophenyl)-N-[3-[4-[4-fluoro-2-(2,2,2-trifluoroethoxy)phenyl]-1-piperazinyl]-propyl]-5-methylisoxazole-4-carboxamide] | 24.1 nM | 342 nM |  |  |  |  |  |
| Cc1onc(-c2c(Cl)cccc2Cl)c1C(=O)NCCCN1CCN(c2ccc(F)cc2OCC(F)(F)F)CC1 [Example 10, 3-(2,6-Dichlorophenyl)-N-[3-[4-[4-fluoro-2-(2,2,2-trifluoroethoxy)phenyl]-1-piperazinyl]pro-pyl]-5-methylisoxazole-4-carboxamide] | 24.2 nM | 170 nM |  |  |  |  |  |
| Cc1onc(-c2ccccc2Cl)c1C(=O)NCCCN1CCN(c2ccc(F)cc2OCC(F)(F)F)CC1 [Example 11, 3-(2-Chlorophenyl)-N-[3-[4-[4-fluoro-2-(2,2,2-trifluoroethoxy)phenyl]-1-piperazinyl]propyl]-5-methylisoxazole-4-carboxamide] | 31.2 nM | 242 nM |  |  |  |  |  |

Now those with a lower Ki [2], led by results:

| Ki [2] | Ki [3] | Ki [4] | Affinity for recombinant α1d-adrenoceptor subtype, Ki [7] | SMILES | DBP ED25: dose inducing a 25% decrease in diastolic blood pressure [1] | UP ID50 HYP: dose inhibiting by 50% the urethral contractions induced by hypogastric-nerve stimulation [5] | UP ID50 NA: dose inhibiting by 50% the urethral contractions induced by noradrenaline [6] |
| --- | --- | --- | --- | --- | --- | --- | --- |
| 9.97 nM | 49.5 nM |  |  | Cc1onc(-c2ccccc2)c1C(=O)NCCCN1CCN(c2cc(Cl)ccc2O)CC1 [Example 2, N-{3-[4-(5-Chloro-2-hydroxyphenyl)-1-piperazinyl]propyl}-5-methyl-3-phenylisoxazole-4-carboxamide] |  |  |  |
| 11.5 nM | 192 nM | 0.05 nM |  | Cc1onc(-c2ccccc2)c1C(=O)NCCCN1CCN(c2cc(F)ccc2OCC(F)(F)F)CC1 [Example 5, N-{3-[4-[5-Fluoro-2-(2,2,2-trifluoroethoxy)phenyl]-1-piperazinyl]propyl}-5-methyl-3-phenylisoxazole-4-carboxamide] |  |  |  |
| 7.49 nM | ≥ 1000 nM |  |  | Cc1onc(-c2ccccc2)c1C(=O)NCCCN1CCN(c2cc(Cl)ccc2OS(=O)(=O)C(F)(F)F)CC1 [Example 7, N-{3-[4-(5-Chloro-2-trifluoromethanesulphonyloxy)-1-piperazinyl]propyl}-5-methyl-3-phenylisoxazole-4-carboxamide] |  |  |  |
| 21.4 nM | 30 nM |  |  | Cc1onc(-c2c(F)cccc2Cl)c1C(=O)NCCCN1CCN(c2ccccc2OCC(F)(F)F)CC1 [Example 12, 3-(2-Chloro-6-fluorophenyl)-5-methyl-N-[3-[4-[2-(2,2,2-trifluoroethoxy)phenyl]1-piperazi-nyl]propyl]isoxazole-4-carboxamide] |  |  |  |
